These are literature values, as cited in patent US20120142631A1, “MEDICINAL ANTIDIAPER RASH CREAM INCORPORATING A BIOPOLYMER AND A PROCESS TO MAKE IT” (APEX LABORATORIES PRIVATE LIMITED, priority 2009, published 2012).

Each structure is given as a SMILES string. Like-named read-outs stand apart in the source and are kept apart here.

In the case of `CCCCCCCCCCCCCC[N+](C)(C)C.[Br-]` [Cetrimide, tetradecyltrimethylammonium bromide], the Solubility entry by setting is: (chloroform) “freely soluble”; (ether) “practically insoluble”. For the same compound, the Solubility / miscibility entry reads like this: (ethanol (95%)) “freely soluble”; (water) “freely soluble”.

Regarding `CCCCCCCCCCCCC[N+](C)(C)Cc1ccccc1.[Cl-]` [Benzalkonium chloride, benzyl-dimethyl-tridecyl-azanium chloride], the Solubility result (acetone) is recorded as “readily soluble” and the Solubility result (ethanol) is listed as “readily soluble”. Moreover, the Solubility / miscibility entry runs as follows: (ethanol (95%)) “miscible”; (water) “miscible”.
